We go through eleven compounds from the supplement of paper PMC7600603.

The subject of experiment [1] is DLD1 NRF2-GOF. The settings on record: 72 h; CellTiter-Glo viability. Put shortly: (§1)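 EC50 and drug sensitivity score, the latter a normalised area under the curve, were calculated from logistic dose-response fits. The fits had four parameters and used CellTiter-Glo viability data read on a Pherastar FS reader 72 h after treatment, normalised to vehicle wells and 100-μM positive-control wells. Treated cells were isogenic DLD1 colorectal cancer cells, NRF2 wild-type or CRISPR gain-of-function, exposed in 384-well plates to library compounds at 5 concentrations spanning a 10,000-fold range.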

The subject of experiment [2] is DLD1 NRF2-WT. The settings on record: 72 h; CellTiter-Glo viability. Put shortly:
as §1
(In general: Cellular ATP, detected with luciferase, serves as a proxy for viable cell number.)

Experiment [3] concerns DLD1 NRF2-GOF. The experiment in a line: TC50 cytotoxicity; higher = less toxic. The settings on record: 72 h; CellTox Green cytotoxicity. Put shortly:
(§2)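 TC50 and drug sensitivity score, a normalised area under the curve, were derived by logistic dose-response fits of cytotoxicity. The cells were an isogenic DLD1 colorectal cancer pair, NRF2 wild-type or CRISPR-edited, kept in DMEM with 10% FBS. Compounds were tested in 384-well plates at 5 concentrations across a 10,000-fold range for 72 h. Readings with CellTox Green on a Pherastar FS reader were normalised to vehicle wells and 100-μM positive-control wells.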

Experiment [4] has as its system DLD1 NRF2-WT. The experiment in a line: TC50 cytotoxicity; higher = less toxic. The note with it: 72 h; CellTox Green cytotoxicity. Put shortly: as §2
Experiment [5] deals with DLD1 NRF2-GOF. Kind of experiment: drug sensitivity score (DSS) cytotoxicity (DSS score); higher = more toxic; extreme values may be limits of the assay. The note with it: 72 h; CellTox Green cytotoxicity. An outline of the steps: as §2
Experiment [6] deals with DLD1 NRF2-WT. The experiment is described as above. The note with it: 72 h; CellTox Green cytotoxicity. Put shortly: as §2
Experiment [7] has as its system DLD1 NRF2-GOF. Kind of experiment: drug sensitivity score (DSS) viability (DSS score); higher = more sensitive; extreme values may be limits of the assay. The note with it: 72 h; CellTiter-Glo viability. Put shortly:
as §1

Experiment [8] deals with DLD1 NRF2-WT. The experiment is described as above. The note with it: 72 h; CellTiter-Glo viability. Put shortly: as §1

`CC(=O)O[C@]1(C(C)=O)CC[C@H]2[C@@H]3C=C(C)C4=CC(=O)CC[C@]4(C)[C@H]3CC[C@@]21C` [Megestrol acetate]: the EC50 viability with DLD1 NRF2-GOF [1] and in the experiment with DLD1 NRF2-WT [2] was over 10000 nM throughout. The TC50 cytotoxicity with DLD1 NRF2-GOF [3] and with DLD1 NRF2-WT [4] was over 10000 nM each time. Also, the drug sensitivity score with DLD1 NRF2-GOF [5] was determined as 0; in the experiment on DLD1 NRF2-WT [6], 0; in the experiment with DLD1 NRF2-GOF [7] it was 2.4; in the experiment with DLD1 NRF2-WT [8] it was 0.

Take `CCN(CC)CCCC(C)Nc1c2ccc(Cl)cc2nc2ccc(OC)cc12` (stereo not drawn) [Mepacrine]: the results for the EC50 viability with DLD1 NRF2-GOF [1] and in the experiment with DLD1 NRF2-WT [2] were 1510 nM and 1210 nM, respectively. Further, the TC50 cytotoxicity in the experiment on DLD1 NRF2-GOF [3] is 7070 nM; with DLD1 NRF2-WT [4] it was 5030 nM. Also, the drug sensitivity score in the experiment with DLD1 NRF2-GOF [5] is 9.9; with DLD1 NRF2-WT [6], 11.7; with DLD1 NRF2-GOF [7], 18.2; with DLD1 NRF2-WT [8], 19.4.

With `Sc1ncnc2nc[nH]c12` [Mercaptopurine], the EC50 viability with DLD1 NRF2-GOF [1] came out at 1720 nM; in the experiment on DLD1 NRF2-WT [2], 4290 nM. The TC50 cytotoxicity in the experiment with DLD1 NRF2-GOF [3] and in the experiment on DLD1 NRF2-WT [4] was over 10000 nM each time. The drug sensitivity score was 0 in the experiment with DLD1 NRF2-GOF [5], 0 with DLD1 NRF2-WT [6], 6.5 in the experiment with DLD1 NRF2-GOF [7] and 2.1 in the experiment on DLD1 NRF2-WT [8].

Consider `Cc1ccc(C(=O)Nc2ccc(Oc3cc4cnn(C)c4cc3-c3cn[nH]c3)c(F)c2)c(=O)n1-c1ccc(F)cc1` [Merestinib], for which the EC50 viability in the experiment on DLD1 NRF2-GOF [1] is 98.6 nM; in the experiment on DLD1 NRF2-WT [2], 207 nM. Further, the TC50 cytotoxicity in the experiment on DLD1 NRF2-GOF [3] and with DLD1 NRF2-WT [4] was over 1000 nM throughout. In addition, the drug sensitivity score in the experiment with DLD1 NRF2-GOF [5] came to 0; in the experiment with DLD1 NRF2-WT [6], 0; in the experiment on DLD1 NRF2-GOF [7] it was 7.9; with DLD1 NRF2-WT [8], 4.2.

Take `CN(Cc1cnc2nc(N)nc(N)c2n1)c1ccc(C(=O)N[C@@H](CCC(=O)O)C(=O)O)cc1` [Methotrexate]: the EC50 viability in the experiment on DLD1 NRF2-GOF [1] was 29.7 nM; with DLD1 NRF2-WT [2], 35.5 nM. Moreover, the TC50 cytotoxicity in the experiment with DLD1 NRF2-GOF [3] and in the experiment on DLD1 NRF2-WT [4] was over 5000 nM each time. The drug sensitivity score came to 0 in the experiment with DLD1 NRF2-GOF [5], 0 with DLD1 NRF2-WT [6], 23.8 in the experiment with DLD1 NRF2-GOF [7] and 23.4 in the experiment with DLD1 NRF2-WT [8].

`CO[C@@H]1[C@H](N(C)C(=O)c2ccccc2)C[C@H]2O[C@]1(C)n1c3ccccc3c3c4c(c5c6ccccc6n2c5c31)C(=O)NC4` [Midostaurin]: the EC50 viability in the experiment with DLD1 NRF2-GOF [1] is 499 nM; with DLD1 NRF2-WT [2] it was 880 nM. Further, the TC50 cytotoxicity with DLD1 NRF2-GOF [3] came to 801 nM; with DLD1 NRF2-WT [4], 686 nM. Also, the drug sensitivity score in the experiment with DLD1 NRF2-GOF [5] was 12.9; in the experiment with DLD1 NRF2-WT [6] it was 12.4; in the experiment on DLD1 NRF2-GOF [7] it was 12.4; in the experiment with DLD1 NRF2-WT [8], 9.8.

Take `CNC(=O)c1nn(C)c2c1C(C)(C)Cc1cnc(Nc3ccc(N4CCN(C)CC4)cc3)nc1-2` [Milciclib]: the EC50 viability stood at 1190 nM with DLD1 NRF2-GOF [1] and 926 nM in the experiment on DLD1 NRF2-WT [2]. Moreover, the TC50 cytotoxicity in the experiment on DLD1 NRF2-GOF [3] and in the experiment on DLD1 NRF2-WT [4] was over 10000 nM in each case. The drug sensitivity score with DLD1 NRF2-GOF [5] is 0; in the experiment with DLD1 NRF2-WT [6], 0.5; in the experiment with DLD1 NRF2-GOF [7], 8.5; with DLD1 NRF2-WT [8], 10.8.

As to `Clc1ccc(C(c2ccccc2Cl)C(Cl)Cl)cc1` (stereo not drawn) [Mitotane], the EC50 viability in the experiment with DLD1 NRF2-GOF [1] and in the experiment with DLD1 NRF2-WT [2] was over 10000 nM throughout. For the same compound, the TC50 cytotoxicity in the experiment on DLD1 NRF2-GOF [3] and with DLD1 NRF2-WT [4] was over 10000 nM in each case. Moreover, the drug sensitivity score in the experiment on DLD1 NRF2-GOF [5] stood at 0; in the experiment on DLD1 NRF2-WT [6], 0; in the experiment with DLD1 NRF2-GOF [7], 1.8; in the experiment on DLD1 NRF2-WT [8], 0.

On to `O=C1c2c(O)ccc(O)c2C(=O)c2c(NCCNCCO)ccc(NCCNCCO)c21` [Mitoxantrone], for which the EC50 viability in the experiment with DLD1 NRF2-GOF [1] worked out at 96.9 nM; in the experiment with DLD1 NRF2-WT [2] it was 67.4 nM. Further, the TC50 cytotoxicity in the experiment with DLD1 NRF2-GOF [3] and in the experiment on DLD1 NRF2-WT [4] was over 1000 nM each time. For the same compound, the drug sensitivity score came out at 0 with DLD1 NRF2-GOF [5], 0 in the experiment with DLD1 NRF2-WT [6], 10.1 in the experiment with DLD1 NRF2-GOF [7] and 12.3 in the experiment with DLD1 NRF2-WT [8].

Turning to `N#CCNC(=O)c1ccc(-c2ccnc(Nc3ccc(N4CCOCC4)cc3)n2)cc1` [Momelotinib], the EC50 viability with DLD1 NRF2-GOF [1] was determined as 3250 nM; in the experiment on DLD1 NRF2-WT [2], 2800 nM. In addition, the TC50 cytotoxicity with DLD1 NRF2-GOF [3] and in the experiment with DLD1 NRF2-WT [4] was over 10000 nM each time. For the same compound, the drug sensitivity score in the experiment on DLD1 NRF2-GOF [5] turned out to be 0.1; in the experiment on DLD1 NRF2-WT [6], 0.2; with DLD1 NRF2-GOF [7], 2.8; with DLD1 NRF2-WT [8], 4.1.

Take `CCCN(CCC)C(=O)C1=Cc2ccc(-c3ccc(C(=O)N4CCCC4)cc3)cc2N=C(N)C1` [Motolimod]: the EC50 viability worked out at 1330 nM in the experiment with DLD1 NRF2-GOF [1] and 937 nM in the experiment on DLD1 NRF2-WT [2]. The TC50 cytotoxicity in the experiment with DLD1 NRF2-GOF [3] and with DLD1 NRF2-WT [4] was over 10000 nM throughout. Besides, the drug sensitivity score came to 0 in the experiment on DLD1 NRF2-GOF [5], 0 in the experiment on DLD1 NRF2-WT [6], 3.6 in the experiment with DLD1 NRF2-GOF [7] and 4.4 with DLD1 NRF2-WT [8].
